Data published in patent publication US11401510B2, “Generation of airway basal stem cells from human pluripotent stem cells” (TRUSTEES OF BOSTON UNIVERSITY, priority 2020, dated 2022).

How the values were obtained:
[1] = tested on: BU3 NGPT iBC-derived ALI cultures; assay: Mucus cell metaplasia model: IL-13 treatment of iBC-derived ALI cultures; format: cell-based, human
Description: Human airway epithelium has diverse biologic and physiologic roles, some of which are uniquely affected by disease. it was tested whether iBC-derived ALI cultures could recapitulate features of the three airway disorders with distinct epithelial characteristics: (1) mucus cell metaplasia in asthma; (2) abnormal ion-flux seen in CF; and (3) defective ciliary beating seen in PCD. First, it was tested whether iBC-derived ALI cultures could recapitulate the mucus cell metaplasia seen in asthma. Interleukin-13 (IL-13) is an inflammatory cytokine in asthma and can induce mucus metaplasia. A number of studies, in mice and primary human airway epithelial cell cultures, have found IL-13 leads to increased MUC5AC+ cell numbers via the activation of STAT6 and SPDEF, at the expense of MCCs and MUC5B+ cell frequencies (Kondo et al., 2002; Seibold, 2018; Woodruff et al., 2009).
BU3 NGPT iBSC-derived ALI culture was prepared as described above. Ten days after air-lifted, cells were treated with 10 ng/ml IL-13 and cultured for 10 days prior to the assessments. Mucus cell metaplasia was assessed by immunofluorescence staining for the increment of MUC5AC expressing cells or gene expression changes via qRT-PCR. Quantification of MUC5AC+ cells was performed using ImageJ™ software by manually counting MUC5AC+ cells in 3 randomly selected fields per well (n=3 wells per condition).
RNA was extracted by first lysing cells in QIAzol (QIAGEN) and subsequently using the RNeasy Mini kit (QIAGEN). Taqman Fast Universal PCR mastermix (Applied Biosystems) were used to reverse transcribe RNA into cDNA and analyzed during 40 cycles of real time PCR using Taqman probes (Applied Biosystems). Relative gene expression, normalized to 18S control, was calculated as fold change in 18S-normalized gene expression, over baseline, using the 2(-DDCT) method. Baseline, defined as fold change=1, was set to undifferentiated iPSCs. If undetected, a cycle number of 40 was assigned to allow fold change calculations.

[2] = biological target: CFTR (F508del) in ALI cultures generated from CF iPSCs (Homo sapiens, UniProt P13569, DEL508-508); assay: Ussing chamber analysis of CFTR-dependent current, CF ALI cultures; format: cell-based; settings: CF (F508del homozygous) iPSC-derived ALI cultures, after amiloride
[3] = biological target: CFTR in ALI cultures generated from corrected CF iPSCs (Corr CF) (Homo sapiens, UniProt P13569); assay: Ussing chamber analysis of CFTR-dependent current, corrected CF ALI cultures; settings: Corr CF (gene-corrected) iPSC-derived ALI cultures, after amiloride; mean±SD, n=3
[4] = IL-13 treated vs untreated, qRT-PCR

Sequence of CFTR (F508del) in ALI cultures generated from CF iPSCs (P13569 with tags, fused parts or gaps DEL508-508): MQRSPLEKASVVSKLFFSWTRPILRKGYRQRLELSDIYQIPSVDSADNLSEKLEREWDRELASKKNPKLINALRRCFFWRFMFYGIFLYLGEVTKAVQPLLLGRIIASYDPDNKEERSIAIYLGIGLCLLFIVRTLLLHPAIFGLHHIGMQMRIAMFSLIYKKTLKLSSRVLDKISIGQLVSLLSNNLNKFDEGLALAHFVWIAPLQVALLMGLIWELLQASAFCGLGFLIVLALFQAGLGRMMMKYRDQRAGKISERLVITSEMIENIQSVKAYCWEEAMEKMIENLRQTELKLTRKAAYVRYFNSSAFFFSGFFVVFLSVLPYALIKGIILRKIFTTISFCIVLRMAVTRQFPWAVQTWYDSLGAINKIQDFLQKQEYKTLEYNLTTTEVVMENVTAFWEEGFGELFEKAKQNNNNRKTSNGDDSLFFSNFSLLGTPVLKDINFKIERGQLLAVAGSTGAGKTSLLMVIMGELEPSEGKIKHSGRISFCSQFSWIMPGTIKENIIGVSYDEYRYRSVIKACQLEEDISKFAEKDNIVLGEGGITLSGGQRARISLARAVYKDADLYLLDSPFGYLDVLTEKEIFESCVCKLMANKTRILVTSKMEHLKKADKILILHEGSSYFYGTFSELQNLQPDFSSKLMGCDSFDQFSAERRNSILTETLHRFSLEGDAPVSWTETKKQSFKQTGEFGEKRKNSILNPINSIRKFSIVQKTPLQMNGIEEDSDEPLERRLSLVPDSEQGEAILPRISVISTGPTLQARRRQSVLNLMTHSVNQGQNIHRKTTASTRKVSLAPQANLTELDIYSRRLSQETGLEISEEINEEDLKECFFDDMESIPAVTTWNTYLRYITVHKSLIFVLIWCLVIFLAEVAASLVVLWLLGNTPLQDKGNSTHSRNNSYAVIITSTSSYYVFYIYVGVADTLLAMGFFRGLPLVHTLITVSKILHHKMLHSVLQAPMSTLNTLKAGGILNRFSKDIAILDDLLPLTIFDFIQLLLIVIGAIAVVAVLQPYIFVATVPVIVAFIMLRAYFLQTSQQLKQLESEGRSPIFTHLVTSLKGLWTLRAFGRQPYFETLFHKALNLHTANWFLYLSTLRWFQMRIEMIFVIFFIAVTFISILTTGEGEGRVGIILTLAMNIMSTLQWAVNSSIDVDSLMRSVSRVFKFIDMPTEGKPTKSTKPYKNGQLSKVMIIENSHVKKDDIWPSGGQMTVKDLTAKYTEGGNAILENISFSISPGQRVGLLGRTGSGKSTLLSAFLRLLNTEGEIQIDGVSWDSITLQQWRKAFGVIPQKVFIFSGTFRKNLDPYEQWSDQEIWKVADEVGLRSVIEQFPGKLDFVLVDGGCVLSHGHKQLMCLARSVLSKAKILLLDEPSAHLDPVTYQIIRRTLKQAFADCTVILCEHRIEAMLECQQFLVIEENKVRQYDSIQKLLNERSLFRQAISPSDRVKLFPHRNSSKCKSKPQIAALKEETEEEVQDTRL
Sequence of CFTR in ALI cultures generated from corrected CF iPSCs (Corr CF) (P13569 whole entry): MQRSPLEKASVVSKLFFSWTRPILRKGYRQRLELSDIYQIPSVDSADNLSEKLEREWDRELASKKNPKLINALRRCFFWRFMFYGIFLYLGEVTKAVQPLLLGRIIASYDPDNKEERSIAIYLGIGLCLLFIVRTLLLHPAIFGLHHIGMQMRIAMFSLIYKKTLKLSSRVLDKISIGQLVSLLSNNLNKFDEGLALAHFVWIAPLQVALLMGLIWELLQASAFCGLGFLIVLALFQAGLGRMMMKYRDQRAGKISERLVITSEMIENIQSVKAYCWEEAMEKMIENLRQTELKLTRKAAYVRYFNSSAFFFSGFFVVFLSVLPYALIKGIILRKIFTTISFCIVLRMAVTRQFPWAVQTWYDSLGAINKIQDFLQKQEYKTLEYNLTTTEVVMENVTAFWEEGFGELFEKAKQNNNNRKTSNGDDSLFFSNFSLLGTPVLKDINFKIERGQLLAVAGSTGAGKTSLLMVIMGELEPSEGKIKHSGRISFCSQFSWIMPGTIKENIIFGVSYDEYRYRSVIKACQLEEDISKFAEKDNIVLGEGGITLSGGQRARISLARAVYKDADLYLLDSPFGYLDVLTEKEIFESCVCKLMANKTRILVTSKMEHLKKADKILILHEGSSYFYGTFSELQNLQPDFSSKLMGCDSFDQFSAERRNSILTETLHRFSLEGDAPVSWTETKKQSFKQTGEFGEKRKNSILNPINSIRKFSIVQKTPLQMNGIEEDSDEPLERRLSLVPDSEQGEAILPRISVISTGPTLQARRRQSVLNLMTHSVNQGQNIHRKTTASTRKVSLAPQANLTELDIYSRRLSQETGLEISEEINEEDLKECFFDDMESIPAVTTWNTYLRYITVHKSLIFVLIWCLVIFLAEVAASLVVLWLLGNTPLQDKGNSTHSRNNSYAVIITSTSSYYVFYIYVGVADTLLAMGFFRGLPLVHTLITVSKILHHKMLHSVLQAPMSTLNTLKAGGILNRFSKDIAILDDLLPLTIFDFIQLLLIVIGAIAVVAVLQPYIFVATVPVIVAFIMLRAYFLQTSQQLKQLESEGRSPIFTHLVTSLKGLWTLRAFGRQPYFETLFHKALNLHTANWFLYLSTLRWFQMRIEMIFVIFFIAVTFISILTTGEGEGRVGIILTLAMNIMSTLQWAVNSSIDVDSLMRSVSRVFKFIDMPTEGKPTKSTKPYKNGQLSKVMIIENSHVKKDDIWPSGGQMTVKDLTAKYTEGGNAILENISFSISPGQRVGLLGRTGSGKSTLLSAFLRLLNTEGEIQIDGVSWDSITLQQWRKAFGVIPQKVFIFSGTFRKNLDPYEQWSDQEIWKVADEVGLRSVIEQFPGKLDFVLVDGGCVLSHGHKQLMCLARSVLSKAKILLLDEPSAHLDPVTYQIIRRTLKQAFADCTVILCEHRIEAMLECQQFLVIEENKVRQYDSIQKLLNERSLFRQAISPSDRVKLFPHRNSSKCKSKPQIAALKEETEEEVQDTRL

| AIsc (change in short circuit current) [2] | AIsc (change in short circuit current) [3] | Substance | fold increase in numbers of MUC5AC+ cells ([1]; 10 ng/ml IL-13 added on day 10 of ALI differentiation, 10 days, vs untreated, p=0.002) | MUC5B expression [1, 4] | expression of goblet cell transcriptional regulator SPDEF [1, 4] |
| --- | --- | --- | --- | --- | --- |
|  |  | IL-13: inflammatory Th-2 cytokine in asthma that can induce mucus metaplasia | 1.75 fold | decrease | increased expression |
| −0.8 pA/cm2 | −43.2±2.5 pA/cm2 | CFTRInh-172 |  |  |  |
